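Five compound concentrations were applied to cells in 96-well plates for 48 hours; endpoints were derived by simple linear interpolation of the resulting dose-response curve. Here, GI50 denotes the concentration required for 50% inhibition of growth.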 Calls of active or inactive are those of the source. Cut-off read from the data, not from the text of the source: active = GI50 up to about 1.1 µM and inactive = higher.
Assays:
Test in all cases: growth of human tumour cells (NCI), 48 h
LXFL 529 = system: LXFL 529
KM-20L2 = system: KM-20L2
SNB-78 = system: SNB-78
DMS-273 = system: DMS-273
M19-MEL = system: M19-MEL
HOP-18 = system: HOP-18
DMS-114 = system: DMS-114
XF498 = system: XF498
RXF 631 = system: RXF 631

Question: Which results are given for `CC(=O)OCC1=C(COC(C)=O)C(=O)c2c(O)ccc(O)c2C1=O`?
Answer: GI50 (LXFL 529): 2.55 µM (inactive); GI50 (KM-20L2): 13.4 µM (inactive); GI50 (SNB-78): 3.78 µM (inactive); GI50 (DMS-273): 15.5 µM (inactive); GI50 (M19-MEL): 1.73 µM (inactive); GI50 (HOP-18): 21 µM (inactive); GI50 (DMS-114): 11.2 µM (inactive)

Question: Which GI50 (LXFL 529) does the source give for `Cc1nc2ccccc2c(=O)n1/N=C(\N=N\c1cc(Cl)ccc1Cl)c1ccc(N(C)C)cc1` here?
Answer: 29.9 µM (inactive)

Question: What about the GI50 (KM-20L2) of the same molecule?
Answer: > 100 µM (inactive)

Question: And the GI50 (XF498)?
Answer: 2.79 µM (inactive)

Question: And the GI50 (DMS-273)?
Answer: 38.5 µM (inactive)

Question: And the GI50 (M19-MEL)?
Answer: > 100 µM (inactive)

Question: And the GI50 (HOP-18)?
Answer: 75.9 µM (inactive)

Question: What about the GI50 (DMS-114) of the same molecule?
Answer: 22.8 µM (inactive)

Question: Which results are given for `CN(C)C(=S)/N=c1\ss/c(=N\S(=O)(=O)c2ccccc2)n1-c1ccccc1`?
Answer: GI50 (LXFL 529): 0.0481 µM (active); GI50 (RXF 631): > 100 µM (inactive); GI50 (XF498): 19.5 µM (inactive); GI50 (SNB-78): 29 µM (inactive); GI50 (DMS-273): 12.9 µM (inactive); GI50 (M19-MEL): 19.4 µM (inactive); GI50 (HOP-18): 32.6 µM (inactive); GI50 (DMS-114): 2.08 µM (inactive)

Question: Which results are given for `O=C1C(c2ccc(C3=[N+]([O-])c4cc([N+](=O)[O-])ccc4C3=O)cc2)=[N+]([O-])c2cc([N+](=O)[O-])ccc21`?
Answer: GI50 (LXFL 529): > 10 µM (inactive); GI50 (KM-20L2): > 10 µM (inactive); GI50 (XF498): > 10 µM (inactive); GI50 (SNB-78): 8.91 µM (inactive); GI50 (DMS-273): > 10 µM (inactive); GI50 (M19-MEL): > 10 µM (inactive); GI50 (HOP-18): > 100 µM (inactive); GI50 (DMS-114): > 10 µM (inactive)

Question: For `COc1ccc(C2C(N)=NCC2c2ccccn2)cc1` (configuration not stated), which GI50 (LXFL 529) is on record?
Answer: > 100 µM (inactive)

Question: And the GI50 (RXF 631)?
Answer: > 100 µM (inactive)

Question: And the GI50 (KM-20L2)?
Answer: > 100 µM (inactive)

Question: What about the GI50 (XF498) of the same molecule?
Answer: > 100 µM (inactive)

Question: And the GI50 (SNB-78)?
Answer: > 100 µM (inactive)

Question: What about the GI50 (M19-MEL) of the same molecule?
Answer: > 100 µM (inactive)

Question: And the GI50 (HOP-18)?
Answer: 30.1 µM (inactive)

Question: And the GI50 (DMS-114)?
Answer: > 100 µM (inactive)

Question: For `O=C(O)c1ccc(C2C(=O)N[C@@H]3CCC[C@H]23)cc1` (some centres not stated), which GI50 (LXFL 529) is on record?
Answer: > 100 µM (inactive)

Question: What about the GI50 (KM-20L2) of the same molecule?
Answer: > 100 µM (inactive)

Question: And the GI50 (SNB-78)?
Answer: > 100 µM (inactive)

Question: And the GI50 (DMS-273)?
Answer: > 100 µM (inactive)

Question: And the GI50 (M19-MEL)?
Answer: > 100 µM (inactive)

Question: And the GI50 (HOP-18)?
Answer: > 100 µM (inactive)

Question: And the GI50 (DMS-114)?
Answer: > 100 µM (inactive)

Question: Which results are given for `CC12CC3(C)CC(C)(C1)CC(N=[N+]=[N-])(C2)C3`?
Answer: GI50 (LXFL 529): > 100 µM (inactive); GI50 (RXF 631): > 100 µM (inactive); GI50 (XF498): > 100 µM (inactive); GI50 (SNB-78): > 100 µM (inactive); GI50 (DMS-273): > 100 µM (inactive); GI50 (M19-MEL): > 100 µM (inactive); GI50 (HOP-18): > 100 µM (inactive); GI50 (DMS-114): > 100 µM (inactive)

Question: Which GI50 (KM-20L2) does the source give for `CC(=O)OCC1OC(n2cc(F)c(=O)[nH]c2=O)C(N)C(OC(C)=O)C1OC(C)=O` (configuration not stated) here?
Answer: > 100 µM (inactive)

Question: And the GI50 (XF498)?
Answer: > 100 µM (inactive)

Question: What about the GI50 (SNB-78) of the same molecule?
Answer: > 100 µM (inactive)

Question: What about the GI50 (DMS-273) of the same molecule?
Answer: > 100 µM (inactive)

Question: And the GI50 (M19-MEL)?
Answer: > 100 µM (inactive)

Question: What about the GI50 (HOP-18) of the same molecule?
Answer: > 100 µM (inactive)

Question: What about the GI50 (DMS-114) of the same molecule?
Answer: > 100 µM (inactive)

Question: For `OCc1nnn2c1CCC2`, which GI50 (LXFL 529) is on record?
Answer: > 100 µM (inactive)

Question: And the GI50 (KM-20L2)?
Answer: > 100 µM (inactive)

Question: What about the GI50 (XF498) of the same molecule?
Answer: > 100 µM (inactive)

Question: And the GI50 (SNB-78)?
Answer: > 100 µM (inactive)

Question: What about the GI50 (M19-MEL) of the same molecule?
Answer: > 100 µM (inactive)

Question: What about the GI50 (HOP-18) of the same molecule?
Answer: > 100 µM (inactive)

Question: With `C/C=C1\NC(=O)[C@H]2CSSCCC=C[C@H](CC(=O)N[C@H](C(C)C)C(=O)N2)OC(=O)[C@H](C(C)C)NC1=O` as the molecule, how does the GI50 (KM-20L2) read?
Answer: 0.00288 µM (active)

Question: What about the GI50 (XF498) of the same molecule?
Answer: 0.00285 µM (active)

Question: What about the GI50 (SNB-78) of the same molecule?
Answer: 0.0446 µM (active)

Question: What about the GI50 (DMS-273) of the same molecule?
Answer: 0.00673 µM (active)

Question: What about the GI50 (M19-MEL) of the same molecule?
Answer: 0.00252 µM (active)

Question: And the GI50 (HOP-18)?
Answer: 0.00412 µM (active)

Question: What about the GI50 (DMS-114) of the same molecule?
Answer: 0.00291 µM (active)

Question: Which GI50 (LXFL 529) does the source give for `COC(=O)C(C(=O)C(=O)Nc1ccccc1C(C)=O)c1nc2ccc(Cl)cc2nc1O` (configuration not stated) here?
Answer: > 100 µM (inactive)

Question: What about the GI50 (RXF 631) of the same molecule?
Answer: > 100 µM (inactive)

Question: What about the GI50 (KM-20L2) of the same molecule?
Answer: > 100 µM (inactive)

Question: And the GI50 (SNB-78)?
Answer: > 100 µM (inactive)

Question: What about the GI50 (M19-MEL) of the same molecule?
Answer: > 100 µM (inactive)

Question: What about the GI50 (HOP-18) of the same molecule?
Answer: 53.5 µM (inactive)

Question: What about the GI50 (DMS-114) of the same molecule?
Answer: > 100 µM (inactive)

Question: Which results are given for `COc1ccc(CC/N=C2\CCC(C(=O)NCCc3ccc(OC)c(OC)c3)N2)cc1OC` (configuration not stated)?
Answer: GI50 (LXFL 529): > 100 µM (inactive); GI50 (RXF 631): > 100 µM (inactive); GI50 (KM-20L2): > 100 µM (inactive); GI50 (XF498): > 100 µM (inactive); GI50 (SNB-78): > 100 µM (inactive); GI50 (DMS-273): > 100 µM (inactive); GI50 (HOP-18): > 100 µM (inactive); GI50 (DMS-114): > 100 µM (inactive)

Question: Which GI50 (LXFL 529) does the source give for `COc1ccc(C2=C(Cl)c3cc(OC)c(OC)cc3C2Cl)cc1` (configuration not stated) here?
Answer: 13.2 µM (inactive)

Question: What about the GI50 (KM-20L2) of the same molecule?
Answer: 15.9 µM (inactive)

Question: And the GI50 (XF498)?
Answer: < 0.01 µM (active)

Question: And the GI50 (SNB-78)?
Answer: 17.9 µM (inactive)

Question: And the GI50 (DMS-273)?
Answer: 17.2 µM (inactive)

Question: And the GI50 (M19-MEL)?
Answer: 18.2 µM (inactive)

Question: And the GI50 (HOP-18)?
Answer: 20.3 µM (inactive)

Question: And the GI50 (DMS-114)?
Answer: 14.1 µM (inactive)

Question: `Cc1[nH]c(=O)[nH]c(=O)c1/C=C/C(=O)NC(CO)C[S+]([O-])C[S+](C)[O-]` (configuration not stated) was tested. Which GI50 (KM-20L2) did it give?
Answer: 36.9 µM (inactive)

Question: And the GI50 (XF498)?
Answer: 1.74 µM (inactive)

Question: What about the GI50 (SNB-78) of the same molecule?
Answer: 11.7 µM (inactive)

Question: And the GI50 (DMS-273)?
Answer: 21 µM (inactive)

Question: What about the GI50 (M19-MEL) of the same molecule?
Answer: 15 µM (inactive)

Question: And the GI50 (HOP-18)?
Answer: 59.3 µM (inactive)

Question: And the GI50 (DMS-114)?
Answer: 11.1 µM (inactive)

Question: What does the source list for `O=C1CSc2sc(=S)sc2S1`?
Answer: GI50 (KM-20L2): > 100 µM (inactive); GI50 (XF498): > 100 µM (inactive); GI50 (SNB-78): > 63.7 µM (inactive); GI50 (DMS-273): 95.9 µM (inactive); GI50 (M19-MEL): > 100 µM (inactive); GI50 (HOP-18): > 84.3 µM (inactive); GI50 (DMS-114): > 100 µM (inactive)

Question: `Oc1nc(-c2ccccc2)cc(-c2ccccc2O)n1` was tested. Which GI50 (LXFL 529) did it give?
Answer: 50.4 µM (inactive)

Question: And the GI50 (KM-20L2)?
Answer: 67.5 µM (inactive)

Question: And the GI50 (XF498)?
Answer: 65 µM (inactive)

Question: And the GI50 (SNB-78)?
Answer: > 100 µM (inactive)

Question: What about the GI50 (DMS-273) of the same molecule?
Answer: > 100 µM (inactive)

Question: And the GI50 (M19-MEL)?
Answer: > 100 µM (inactive)

Question: And the GI50 (HOP-18)?
Answer: > 100 µM (inactive)

Question: And the GI50 (DMS-114)?
Answer: 58.5 µM (inactive)

Question: What does the source list for `S=c1sc2cscc2s1`?
Answer: GI50 (LXFL 529): 20.2 µM (inactive); GI50 (RXF 631): 24.9 µM (inactive); GI50 (KM-20L2): 27 µM (inactive); GI50 (XF498): 23.3 µM (inactive); GI50 (SNB-78): 30.5 µM (inactive); GI50 (DMS-273): 31.1 µM (inactive); GI50 (M19-MEL): 18.5 µM (inactive); GI50 (HOP-18): 20.7 µM (inactive); GI50 (DMS-114): 22.8 µM (inactive)

Source: ChEMBL document CHEMBL1201862, “PubChem BioAssay data set” (2004)
